# Source: US20210321985A1, “COMPOSITIONS AND METHODS FOR TARGETED CONTRAST AGENTS FOR MOLECULAR IMAGING” (ARIZONA BOARD OF REGENTS ON BEHALF OF THE UNIVERSITY OF …, priority 2016, published 2021)
# Assay: Dissolution time of a 2.5-micron encapsulated microbubble in air-saturated liquid
# Type: physicochemical
# Conditions: for Dissolution time: 2.5-micron encapsulated microbubble, air-saturated liquid
Compound,stability of microbubbles relative to microbubbles containing C5F12 (from Table 4),Dissolution time,stability of microbubbles relative to microbubbles containing C3F8 (from Table 4),stability of microbubbles relative to microbubbles containing C4F10 (from Table 4)
FC(F)(F)C(F)(F)C(F)(F)C(F)(F)C(F)(F)C(F)(F)F [Perfluorohexane],only minimal increase in stability,,,
"FC(F)(F)C(F)(F)C(F)(F)C(F)(F)C(F)(F)F [Perfluoropentane (DDFP), Perfluoropentane]",,17 days,"~14,000 times",about five
FC(F)(F)C(F)(F)C(F)(F)C(F)(F)F [Perfluorobutane],,3.46 days,,
FC(F)(F)C(F)(F)C(F)(F)F [Perfluoropropane],,0.0292 days,,
